Laboratory results reported in US20090118310A1, “Activated Cdc42-associated kinase (ACK) as a therapeutic target for Ras-induced cancer” (UNIVERSITY OF MEDICINE AND DENTISTRY OF NEW JERSEY, priority 2005, published 2009).
Entries after “also recorded” stand apart in the source; their conditions may differ.

Columns and labels:
[1] = biological target: T1, ACK-1 kinase (GST-ACKD, amino acids 101-441) (Homo sapiens, UniProt Q07912); experiment: In vitro kinase assay of GST-ACKD with MBP as substrate; type: biochemical; details: FIG. 4C dose response, FIG. 4D inhibitors at 200 nmol/L
T1 construct: made in house; host or cells: Escherichia coli BL21 (pGEX-2TH vector)
Description: Escherichia coli BL21 cells transformed with pGEX-ACKD were grown at 30° C. to early logarithmic phase and protein expression was induced by adding 0.1 mmol/L isopropyl-L-thio-β-D-galactopyranoside. After 3 hours of incubation, cells were harvested, resuspended in lysis buffer [50 mmol/L Tris (pH 7.5), 0.73 mol/L sucrose, 5 mmol/L MgCl2, 0.5% (v/v) NP40], and disrupted by sonication. Cells were centrifuged at 10,000×g for 30 minutes at 4° C. The supernatant was applied to the glutathione-Sepharose column equilibrated with WED buffer [20 mmol/L Tris (pH 7.5), 2 mmol/L MgCl2, 1 mmol/L DTT] followed by washing with WED buffer. GST-ACKD was eluted with 5 mmol/L glutathione solution in 50 mmol/L Tris (pH 9.6). The eluate was dialyzed in WED buffer overnight and concentrated on a sucrose gradient. The expected size of the fusion protein (GST-ACKD) was confirmed by SDS-PAGE (data not shown), and the protein was used for kinase assays as described below.
The purified GST-ACKD (˜5 μg per reaction) was incubated in kinase reaction buffer [50 mmol/L HEPES-KOH (pH 7.2), 10 mmol/L magnesium acetate, 5 mmol/L DTT] containing 7.5 μg MBP, 100 μmol/L ATP, and 4 μCi [γ-^33P]ATP for 10 minutes at 30° C. Reactions were stopped by addition of 5× Laemmli SDS sample buffer. Proteins were separated by SDS-PAGE, and radioactivity incorporated into the substrate was quantified by using the Kodak Imaging Station 2000R. For kinase inhibition experiments, GST-ACKD was preincubated with individual inhibitors in kinase buffer or kinase buffer alone (control) before the addition of MBP following the same protocol as described above. Experiments were done in triplicate.
Several compounds were screened to examine their potency in inhibiting the kinase activity of ACK in vitro. […]
Different kinase inhibitors were added to the ACK-1 kinase reaction as described above in General Procedures. Phosphorylation of MBP was determined by SDS-PAGE and autoradiography. The level of MBP phosphorylation was determined by scanning MBP bands using Kodak Imaging Station 2000R and plotted as arbitrary units. […]

ACK-1 = biological target: T2, ACK-1 (Mus musculus, UniProt O54967); experiment: ACK-1 autophosphorylation in v-Ha-Ras-transformed cells (immunoprecipitation, anti-phosphotyrosine Western blot); type: cell-based; details: 25 μmol/L, 48 hours, FIG. 5A
T2 construct: endogenous in cells; host or cells: v-Ha-Ras-transformed NIH 3T3 cells (and parental NIH 3T3 in the siRNA experiment)
Description: For immunoprecipitation, cells (2×10^6 per sample) were lysed in a buffer containing 1% Triton X-100, 20 mmol/L HEPES (pH 7.4), 150 mmol/L NaCl, 10% glycerol, 1.5 mmol/L MgCl2, 1 mmol/L EGTA, 10 mmol/L sodium pyrophosphate, 0.2 mmol/L sodium orthovanadate, 50 mmol/L NaF, 0.5 mg/mL phenylmethylsulfonyl fluoride, and 0.5 μg/mL aprotinin. Each lysate was incubated with ACK-1 antibody (10 μg/sample) for 4 hours at 4° C. Protein A-Sepharose CL-4B (50 μL) was added to the lysate followed by additional incubation for 2 hours at 4° C. Sepharose beads were collected by centrifugation at 1,000×g for 5 minutes (Eppendorf microfuge). The pellets were washed thrice with lysis buffer using the same protocol. Protein bound to Sepharose beads was recovered in Laemmli SDS sample buffer. […]
To study the effects of ACK on cell proliferation, 2×10^4 cells per well were seeded into 24-well plates and cultured under standard cell culture conditions. […] Cell numbers were counted with a hemocytometer. […]
(§1) The effect of PD158780 and PD157432 on the phosphorylation of ACK-1 was investigated. v-Ha-Ras-transformed cells were cultured in DMEM containing 10% FCS. […] For growth inhibition studies, cells were trypsinized and counted every 24 hours. […]

[2] = tested on: v-Ha-Ras-transformed NIH 3T3 cells; experiment: Growth of v-Ha-Ras-transformed cells treated with kinase inhibitors (cell counting); type: cell-based; details: kinase inhibitor added after overnight culture; cells counted (every 24 hours or after 48 hours)
Description: To study the effects of ACK on cell proliferation, 2×10^4 cells per well were seeded into 24-well plates and cultured under standard cell culture conditions. After overnight culture, individual kinase inhibitors (at indicated concentration) or DMSO (control) were added to the culture. Cells were collected by trypsinization after 48 hours. Cell numbers were counted with a hemocytometer. To study ACK phosphorylation, cells were lysed with a buffer containing 1% Triton X-100, 20 mmol/L HEPES (pH 7.4), 150 mmol/L NaCl, 10% glycerol, 1.5 mmol/L MgCl2, 1 mmol/L EGTA, 10 mmol/L sodium pyrophosphate, 0.2 mmol/L sodium orthovanadate, 50 mmol/L NaF, 0.5 mg/mL phenylmethylsulfonyl fluoride, and 0.5 μg/mL aprotinin. Total protein (˜1 mg) was used for immunoprecipitation of ACK-1.
as §1, with “FCS. Cells were treated with solvent (DMSO), PD 158780 (25 μmol/L), or PD157432 (25 μmol/L) for 48 hours. Cells were incubated under standard cell culture conditions.” for “FCS.”
The effect of ST021169 and ST038325 on v-Ha-Ras-transformed NIH 3T3 cell growth was investigated. […] After 48 hours, the cells were trypsinized and counted with a hemocytometer. […]

T1 sequence (Q07912 38-378 H250G): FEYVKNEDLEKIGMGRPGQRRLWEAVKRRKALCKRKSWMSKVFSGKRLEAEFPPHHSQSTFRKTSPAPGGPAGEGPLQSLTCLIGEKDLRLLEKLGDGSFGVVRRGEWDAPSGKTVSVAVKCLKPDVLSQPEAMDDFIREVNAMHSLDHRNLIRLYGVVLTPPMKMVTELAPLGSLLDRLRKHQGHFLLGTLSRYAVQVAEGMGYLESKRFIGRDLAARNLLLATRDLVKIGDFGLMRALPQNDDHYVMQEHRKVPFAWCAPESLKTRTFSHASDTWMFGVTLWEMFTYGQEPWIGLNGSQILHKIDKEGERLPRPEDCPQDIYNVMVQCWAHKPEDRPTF
T2 sequence (O54967 whole entry): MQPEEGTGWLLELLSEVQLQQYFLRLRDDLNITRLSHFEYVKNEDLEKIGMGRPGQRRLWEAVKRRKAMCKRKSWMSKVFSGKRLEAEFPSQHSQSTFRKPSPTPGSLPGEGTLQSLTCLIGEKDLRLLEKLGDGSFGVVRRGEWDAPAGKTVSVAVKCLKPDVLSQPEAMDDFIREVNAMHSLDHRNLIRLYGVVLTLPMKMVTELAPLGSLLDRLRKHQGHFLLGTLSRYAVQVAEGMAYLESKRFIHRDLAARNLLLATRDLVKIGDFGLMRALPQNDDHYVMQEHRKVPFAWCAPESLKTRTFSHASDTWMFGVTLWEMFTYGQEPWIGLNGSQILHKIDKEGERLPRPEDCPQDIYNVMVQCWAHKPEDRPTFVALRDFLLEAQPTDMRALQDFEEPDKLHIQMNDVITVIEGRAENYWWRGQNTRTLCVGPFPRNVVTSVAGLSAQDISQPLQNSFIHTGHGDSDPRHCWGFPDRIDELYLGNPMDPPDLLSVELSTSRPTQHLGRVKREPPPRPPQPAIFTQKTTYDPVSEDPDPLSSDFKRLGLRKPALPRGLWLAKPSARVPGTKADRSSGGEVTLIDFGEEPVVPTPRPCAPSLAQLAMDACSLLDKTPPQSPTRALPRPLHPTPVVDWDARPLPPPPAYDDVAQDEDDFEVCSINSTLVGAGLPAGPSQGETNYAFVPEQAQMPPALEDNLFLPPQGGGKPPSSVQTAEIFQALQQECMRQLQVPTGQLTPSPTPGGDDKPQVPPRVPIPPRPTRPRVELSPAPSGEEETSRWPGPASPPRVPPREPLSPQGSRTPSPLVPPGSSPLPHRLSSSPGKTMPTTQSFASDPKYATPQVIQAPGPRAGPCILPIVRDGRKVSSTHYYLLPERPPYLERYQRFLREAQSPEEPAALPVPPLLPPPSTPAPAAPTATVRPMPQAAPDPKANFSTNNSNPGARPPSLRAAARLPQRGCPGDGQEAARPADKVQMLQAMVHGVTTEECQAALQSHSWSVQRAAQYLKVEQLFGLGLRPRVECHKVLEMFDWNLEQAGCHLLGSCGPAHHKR

Compound: CNc1cc2c(Nc3cccc(Br)c3)ncnc2cn1 [PD158780]
- inhibition of kinase activity of ACK (MBP phosphorylation) [1]: inhibited ACK strongly and in a dose-dependent manner; also recorded: strongest inhibitory activity
- inhibition of ACK-1 autophosphorylation (ACK-1): inhibited ACK-1 autophosphorylation to a much stronger extent than did PD157432
- inhibition of v-Ha-Ras-transformed NIH 3T3 cell growth [2]: inhibited in a dose-dependent manner
